Reference: US20230257396A1, “MACROCYCLES AND THEIR USE” (BLOSSOMHILL THERAPEUTICS, INC., priority 2020, published 2023)
Positions count from the first letter of the chain named.

What was measured:
Assay in all cases: KINOMEscan kinase binding assay (Eurofins/DiscoveRx), % Ctrl
Settings in all cases: 1 μM
[1] = molecular target: T1, kinases (Homo sapiens, UniProt P00533, DEL746-750)
T1 construct: purchased Eurofins/DiscoveRx; host or cells: E. coli BL21-derived host (T7 phage display) for most kinases; HEK-293 for the rest
Protocol: (§1) Kinase binding assays were performed at Eurofins/DiscoveRx using the general KINOMEscan Protocol (Fabian, M. A. et al., “A small molecule-kinase interaction map for clinical kinase inhibitors,” Nat. Biotechnol. 2005, 23(3):329-36). For most assays, kinase-tagged T7 phage strains were prepared in an E. coli host derived from the BL21 strain. E. coli were grown to log-phase and infected with T7 phage and incubated with shaking at 32° C. until lysis. The lysates were centrifuged and filtered to remove cell debris. The remaining kinases were produced in HEK-293 cells and subsequently tagged with DNA for qPCR detection. Streptavidin-coated magnetic beads were treated with biotinylated small molecule ligands for 30 minutes at room temperature to generate affinity resins for kinase assays. The liganded beads were blocked with excess biotin and washed with blocking buffer (SeaBlock (Pierce), 1% BSA, 0.05% Tween 20, 1 mM DTT) to remove unbound ligand and to reduce nonspecific binding. Binding reactions were assembled by combining kinases, liganded affinity beads, and test compounds in 1×binding buffer (20% SeaBlock, 0.17×PBS, 0.05% Tween 20, 6 mM DTT). All reactions were performed in polystyrene 96-well plates in a final volume of 0.135 mL. The assay plates were incubated at room temperature with shaking for 1 hour and the affinity beads were washed with washbuffer (1×PBS, 0.05% Tween 20). The beads were then re-suspended in elution buffer (1× PBS, 0.05% Tween 20, 0.5 μM non-biotinylated affinity ligand) and incubated at room temperature with shaking for 30 minutes. The kinase concentration in the eluates was measured by qPCR. Results for compounds tested in this assay at a given concentration are reported as “% Ctrl”, where lower numbers indicate stronger binding in the matrix.
(§2) (test compound signal-positive control signal)/(negative control signal-positive control signal) X100

[2] = molecular target: T2, kinases (Homo sapiens, UniProt P00533, DEL752-759)
T2 construct: purchased Eurofins/DiscoveRx; host or cells: E. coli BL21-derived host (T7 phage display) for most kinases; HEK-293 for the rest
Protocol: as §1, §2

[3] = molecular target: T3, kinases (Homo sapiens, UniProt P00533, T790M)
T3 construct: purchased Eurofins/DiscoveRx; host or cells: E. coli BL21-derived host (T7 phage display) for most kinases; HEK-293 for the rest
Protocol: as §1, §2

[4] = molecular target: T4, kinases (Homo sapiens, UniProt P36888, D835Y)
T4 construct: purchased Eurofins/DiscoveRx; host or cells: E. coli BL21-derived host (T7 phage display) for most kinases; HEK-293 for the rest
T4 sequence (P36888 27-993 D835Y): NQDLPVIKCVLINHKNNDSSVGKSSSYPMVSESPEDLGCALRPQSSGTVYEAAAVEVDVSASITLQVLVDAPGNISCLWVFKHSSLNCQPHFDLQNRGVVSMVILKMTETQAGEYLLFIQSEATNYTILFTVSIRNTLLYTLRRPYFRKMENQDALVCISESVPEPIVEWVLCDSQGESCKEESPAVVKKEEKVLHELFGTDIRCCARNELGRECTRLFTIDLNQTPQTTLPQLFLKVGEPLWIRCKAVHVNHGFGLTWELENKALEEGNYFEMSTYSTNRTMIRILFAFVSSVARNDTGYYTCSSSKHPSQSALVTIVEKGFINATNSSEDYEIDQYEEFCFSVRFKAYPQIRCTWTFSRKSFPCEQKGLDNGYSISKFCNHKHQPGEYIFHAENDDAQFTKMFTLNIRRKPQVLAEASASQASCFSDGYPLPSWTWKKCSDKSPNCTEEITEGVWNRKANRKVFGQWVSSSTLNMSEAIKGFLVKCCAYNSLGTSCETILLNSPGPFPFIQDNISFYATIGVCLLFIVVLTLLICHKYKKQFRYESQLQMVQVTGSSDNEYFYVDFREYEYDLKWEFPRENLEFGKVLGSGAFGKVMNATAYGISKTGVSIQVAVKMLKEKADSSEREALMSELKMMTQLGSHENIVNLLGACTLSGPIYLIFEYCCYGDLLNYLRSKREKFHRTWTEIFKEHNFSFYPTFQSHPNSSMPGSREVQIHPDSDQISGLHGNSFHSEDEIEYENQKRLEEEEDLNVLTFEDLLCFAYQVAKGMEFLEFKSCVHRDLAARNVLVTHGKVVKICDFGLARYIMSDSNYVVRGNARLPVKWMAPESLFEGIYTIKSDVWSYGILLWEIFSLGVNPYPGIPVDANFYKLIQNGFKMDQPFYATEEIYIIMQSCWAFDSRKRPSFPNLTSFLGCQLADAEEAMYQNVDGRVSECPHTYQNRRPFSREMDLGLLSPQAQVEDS
Protocol: as §1, §2

[5] = molecular target: T5, kinases (Homo sapiens, UniProt P36888, K663Q)
T5 construct: purchased Eurofins/DiscoveRx; host or cells: E. coli BL21-derived host (T7 phage display) for most kinases; HEK-293 for the rest
T5 sequence (P36888 27-993 K663Q): T4 sequence (P36888 27-993 D835Y) with K637Q, Y809D
Protocol: as §1, §2

[6] = molecular target: T6, kinases (Homo sapiens, UniProt P42684)
T6 construct: purchased Eurofins/DiscoveRx; host or cells: E. coli BL21-derived host (T7 phage display) for most kinases; HEK-293 for the rest
T6 sequence (P42684 whole entry): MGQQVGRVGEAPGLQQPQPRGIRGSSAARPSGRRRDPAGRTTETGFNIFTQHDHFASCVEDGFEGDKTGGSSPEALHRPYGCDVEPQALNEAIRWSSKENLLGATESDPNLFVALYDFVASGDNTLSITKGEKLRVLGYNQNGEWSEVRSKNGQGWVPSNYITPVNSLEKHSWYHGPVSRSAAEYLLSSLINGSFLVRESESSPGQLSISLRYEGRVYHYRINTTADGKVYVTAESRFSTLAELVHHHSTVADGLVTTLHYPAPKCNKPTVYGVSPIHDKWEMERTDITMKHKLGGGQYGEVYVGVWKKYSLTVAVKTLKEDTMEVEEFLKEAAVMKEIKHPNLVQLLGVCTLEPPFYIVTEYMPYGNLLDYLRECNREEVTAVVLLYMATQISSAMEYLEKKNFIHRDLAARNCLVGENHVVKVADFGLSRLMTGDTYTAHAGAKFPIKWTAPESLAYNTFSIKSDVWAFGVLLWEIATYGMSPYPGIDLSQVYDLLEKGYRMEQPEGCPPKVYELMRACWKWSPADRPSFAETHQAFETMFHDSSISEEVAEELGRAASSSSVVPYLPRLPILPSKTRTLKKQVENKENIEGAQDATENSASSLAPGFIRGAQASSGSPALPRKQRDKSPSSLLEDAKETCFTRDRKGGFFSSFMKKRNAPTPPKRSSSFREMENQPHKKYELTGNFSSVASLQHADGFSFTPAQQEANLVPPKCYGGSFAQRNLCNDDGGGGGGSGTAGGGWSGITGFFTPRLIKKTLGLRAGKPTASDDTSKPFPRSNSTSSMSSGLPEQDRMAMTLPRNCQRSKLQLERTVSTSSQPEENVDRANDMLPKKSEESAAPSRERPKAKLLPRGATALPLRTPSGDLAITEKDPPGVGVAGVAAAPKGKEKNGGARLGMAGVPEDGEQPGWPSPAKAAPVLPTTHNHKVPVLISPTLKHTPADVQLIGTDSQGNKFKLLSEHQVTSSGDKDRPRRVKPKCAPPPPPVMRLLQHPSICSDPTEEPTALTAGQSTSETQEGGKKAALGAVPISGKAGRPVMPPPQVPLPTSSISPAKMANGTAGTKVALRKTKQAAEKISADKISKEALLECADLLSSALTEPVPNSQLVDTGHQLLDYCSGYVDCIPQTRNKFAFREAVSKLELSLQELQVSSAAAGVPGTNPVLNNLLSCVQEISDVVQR
Protocol: as §1, §2

| % Ctrl, EGFR(E746-A750del) ([1]; EGFR(E746-A750del)) [% Ctrl] | % Ctrl, EGFR(S752-I759del) ([2]; EGFR(S752-I759del)) [% Ctrl] | % Ctrl, EGFR(T790M) ([3]; EGFR(T790M)) [% Ctrl] | % Ctrl, FLT3(D835Y) ([4]; FLT3(D835Y)) [% Ctrl] | % Ctrl, FLT3(K663Q) ([5]; FLT3(K663Q)) [% Ctrl] | % Ctrl, ABL2 ([6]; ABL2) [% Ctrl] | % Ctrl, EGFR(E746-A750del) ([1]; target EGFR(E746-A750del)) [% Ctrl] | % Ctrl, EGFR(S752-I759del) ([2]; target EGFR(S752-I759del)) [% Ctrl] | % Ctrl, EGFR(T790M) ([3]; target EGFR(T790M)) [% Ctrl] | % Ctrl, FLT3(D835Y) ([4]; target FLT3(D835Y)) [% Ctrl] | % Ctrl, FLT3(K663Q) ([5]; target FLT3(K663Q)) [% Ctrl] | % Ctrl, ABL2 ([6]; target ABL2) [% Ctrl] | SMILES |
| --- | --- | --- | --- | --- | --- | --- | --- | --- | --- | --- | --- | --- |
| 98 | 98 | 94 | 14 | 69 | 99 | – | – | – | – | – | – | Cc1cc2c([nH]1)/C=C1\C(=O)Nc3cc(Cl)c(cc31)OCCO[C@@H](C(=O)N(C)C)CN(C)C2=O [Ex. 137, [7R,16a(17)Z]-19-chloro-N,N,2,5-tetramethyl-4,16-dioxo-4,5,6,7,9,10,15,16-octahydro-1H-12,14-(ethanediylidene)dipyrrolo[3,2-i:3′,4′-l][1,4,7]dioxazacyclopentadecine-7-carboxamide] |
| – | – | – | – | – | – | 65 | 86 | 100 | 3.1 | 11 | 40 | CN1CCOCCOc2cc3c(cc2Cl)NC(=O)/C3=C\c2[nH]ccc2C1=O [Ex. 143, [16a(17)Z]-19-chloro-2,5-dimethyl-6,7,9,10-tetrahydro-1H-12,14-(ethanediylidene)dipyrrolo[3,2-i:3′,4′-l][1,4,7]oxathiazacyclopentadecine-4,16(5H,15H)-dione] |
| 100 | 93 | 100 | 72 | 77 | 100 | – | – | – | – | – | – | Cc1cc2c([nH]1)/C=C1\C(=O)Nc3cnc(cc31)-c1cnn(C)c1COCCNC2=O [Ex.123, [3a(4)Z]-6,14-dimethyl-10,11,13,14-tetrahydro-2H-17,1-(azenometheno)pyrazolo[4,3-m]dipyrrolo[3,2-f:3′,4′-i][1,4]oxazacyclopentadecine-3,8(5H,9H)-dione] |
| 97 | 72 | 57 | 93 | 100 | 95 | – | – | – | – | – | – | Cc1cc2c([nH]1)/C=C1\C(=O)Nc3ccc(nc31)-c1ccccc1OCCCNC2=O [Ex.22, [3a(4)Z]-6-methyl-9,10,11,12-tetrahydro-1,18-(ethanediylidene)dipyrrolo[3,2-g:3′,4′-j][1,5,12]benzoxadiazacyclopentadecine-3,8(2H,5H)-dione] |
| 89 | 88 | 92 | 10 | 73 | 77 | – | – | – | – | – | – | Cc1cc2c([nH]1)/C=C1\C(=O)Nc3cc(Cl)c(cc31)OCCO[C@@H](C(=O)NC1CCNCC1)CN(C)C2=O [Ex. 134, [7R,16a(17)Z]-19-chloro-2,5-dimethyl-4,16-dioxo-N-(piperidin-4-yl)-4,5,6,7,9,10,15,16-octahydro-1H-12,14-(ethaneidylidene)dipyrrolo[3,2-i:3′,4′-l][1,4,7]dioxazacyclopentadecine-7-carboxamide] |
| 69 | 80 | 99 | 96 | 100 | 89 | – | – | – | – | – | – | Cc1cc2c([nH]1)/C=C1\C(=O)Nc3ccc(cc31)-c1ccnn1CCOCCNC2=O [Ex.39, [19a(20)Z]-2-methyl-6,7,9,10-tetrahydro-1H-15,17-(ethanediylidene)pyrazolo[1,5-d]dipyrrolo[3,4-h:2′,3′-k][1,4,14]oxadiazacyclohexadecine-4,19(5H,18H)-dione] |
| – | – | – | – | – | – | 98 | 100 | 86 | 67 | 71 | 95 | Cc1nn(C)c2c1-c1ccc3c(c1)/C(=C/c1[nH]ccc1C(=O)N(C)CCCO2)C(=O)N3 [Ex. 150, [3a(4)Z]-9,14,16-trimethyl-10,11,13,14-tetrahydro-2H-1,17-(ethanediylidene)pyrazolo[4,3-m]dipyrrolo[3,2-f:3′,4′-i][1,4]oxazacyclopentadecine-3,8(5H,9H)-dione] |
| 100 | 90 | 98 | 3.1 | 77 | 96 | – | – | – | – | – | – | Cc1cc2c([nH]1)/C=C1\C(=O)Nc3cc(Cl)c(cc31)OCCO[C@@H](C(=O)NC1CNC1)CN(C)C2=O [Ex. 133, [7R,16a(17)Z]-N-(azetidin-3-yl)-19-chloro-2,5-dimethyl-4,16-dioxo-4,5,6,7,9,10,15,16-octahydro-1H-12,14-(ethanediylidene)dipyrrolo[3,2-i:3′,4′-l][1,4,7]dioxazacyclopentadecine-7-carboxamide] |
| 3.9 | 32 | 1.6 | 1.4 | 4.2 | 0.9 | – | – | – | – | – | – | Cc1cc2c([nH]1)/C=C1\C(=O)Nc3ccc(cc31)-c1cnn(C)c1CN(C)CCN(C)C2=O [Ex. 126, [3a(4)Z]-6,9,12,14-tetramethyl-9,10,11,12,13,14-hexahydro-1,17-(ethanediylidene)pyrazolo[4,3-m]dipyrrolo[3,2-f:3′,4′-i][1,4]diazacyclopentadecine-3,8(2H,5H)-dione] |
